Data reported in ChEMBL document CHEMBL5338747, “Discovery of Quaternized Pyridine-Thiazole-Pleuromutilin Derivatives with Broad-Spectrum Antibacterial and Potent Anti-MRSA Activity” (J Med Chem, 2023).
In brackets after ≈: the same amount, converted by molar mass.

Legend:
Staphylococcus aureus [1] = assay: Antibacterial activity against methicillin-resistant Staphylococcus aureus ATCC 33591 assessed as inhibition of bacterial growth incubated for 24 hrs by broth microdilution method; type: functional
Staphylococcus aureus [2] = assay: Antibacterial activity against methicillin-resistant Staphylococcus aureus ATCC 43300 assessed as inhibition of bacterial growth incubated for 24 hrs by broth microdilution method; type: functional
Staphylococcus aureus [3] = assay: Antibacterial activity against […] assessed as inhibition of bacterial growth incubated for 24 hrs by broth microdilution method; type: functional; details: ATCC 29213
[4] = system: Staphylococcus epidermidis; assay: Antibacterial activity against methicillin-resistant Staphylococcus epidermidis ATCC 51625 assessed as inhibition of bacterial growth incubated for 24 hrs by broth microdilution method; type: functional
Acinetobacter baumannii [5] = assay: Antibacterial activity against Acinetobacter baumannii ATCC 19606 assessed as inhibition of bacterial growth incubated for 24 hrs by broth microdilution method; type: functional
Salmonella enterica = assay: Antibacterial activity against Salmonella enterica ATCC 14028 assessed as inhibition of bacterial growth incubated for 24 hrs by broth microdilution method; type: functional
Escherichia coli [6] = assay: Antibacterial activity against Escherichia coli ATCC 25922 assessed as inhibition of bacterial growth incubated for 24 hrs by broth microdilution method; type: functional
Escherichia coli [7] = assay: Antibacterial activity against Escherichia coli CMCC 44103 assessed as inhibition of bacterial growth incubated for 24 hrs by broth microdilution method; type: functional
Staphylococcus aureus [8] = assay: Antibacterial activity against methicillin-resistant Staphylococcus aureus 171 assessed as inhibition of bacterial growth incubated for 24 hrs by broth microdilution method; type: functional
Staphylococcus aureus [9] = assay: Antibacterial activity against methicillin-resistant Staphylococcus aureus 575 assessed as inhibition of bacterial growth incubated for 24 hrs by broth microdilution method; type: functional
Staphylococcus aureus [10] = assay: Antibacterial activity against methicillin-resistant Staphylococcus aureus 206 assessed as inhibition of bacterial growth incubated for 24 hrs by broth microdilution method; type: functional
Staphylococcus aureus [11] = assay: Antibacterial activity against methicillin-resistant Staphylococcus aureus 222 assessed as inhibition of bacterial growth incubated for 24 hrs by broth microdilution method; type: functional
Staphylococcus aureus [12] = assay: Antibacterial activity against methicillin-resistant Staphylococcus aureus 596 assessed as inhibition of bacterial growth incubated for 24 hrs by broth microdilution method; type: functional
Enterococcus = assay: Antibacterial activity against vancomycin-resistant Enterococcus 80 assessed as inhibition of bacterial growth incubated for 24 hrs by broth microdilution method; type: functional
Pseudomonas aeruginosa = assay: Antibacterial activity against multidrug-resistant Pseudomonas aeruginosa 126 assessed as inhibition of bacterial growth incubated for 24 hrs by broth microdilution method; type: functional
Klebsiella pneumoniae = assay: Antibacterial activity against multidrug-resistant Klebsiella pneumoniae 893 assessed as inhibition of bacterial growth incubated for 24 hrs by broth microdilution method; type: functional
Acinetobacter baumannii [13] = assay: Antibacterial activity against carbapenem-resistant Acinetobacter baumannii 882 assessed as inhibition of bacterial growth incubated for 24 hrs by broth microdilution method; type: functional
[14] = Aqueous solubility of the compound in physiological saline measured after 12 hrs by UV spectrophotometric analysis; type: physicochemical
[15] = Cytotoxicity against human HEK293 cells assessed as reduction in cell viability measured after 48 hrs by CCK8 assay; type: toxicity, cell-based
[16] = Cytotoxicity against human A549 cells assessed as reduction in cell viability measured after 48 hrs by CCK8 assay; type: toxicity, cell-based
[17] = Cytotoxicity against human HepG2 cells assessed as reduction in cell viability measured after 48 hrs by CCK8 assay; type: toxicity, cell-based

| SMILES | MIC (Staphylococcus aureus [1]) [µg/mL] | MIC (Staphylococcus aureus [2]) [µg/mL] | MIC (Staphylococcus aureus [3]) [µg/mL] | MIC [4] [µg/mL] | MIC (Acinetobacter baumannii [5]) [µg/mL] | MIC (Salmonella enterica) [µg/mL] | MIC (Escherichia coli [6]) [µg/mL] | MIC (Escherichia coli [7]) [µg/mL] | MIC (Staphylococcus aureus [8]) [µg/mL] | MIC (Staphylococcus aureus [9]) [µg/mL] | MIC (Staphylococcus aureus [10]) [µg/mL] | MIC (Staphylococcus aureus [11]) [µg/mL] | MIC (Staphylococcus aureus [12]) [µg/mL] | MIC (Enterococcus) [µg/mL] | MIC (Pseudomonas aeruginosa) [µg/mL] | MIC (Klebsiella pneumoniae) [µg/mL] | MIC (Acinetobacter baumannii [13]) [µg/mL] | solubility at 12 h [14] [µM] | CC50 at 48 h [15] [µM] | CC50 at 48 h [16] [µM] | other results |
| --- | --- | --- | --- | --- | --- | --- | --- | --- | --- | --- | --- | --- | --- | --- | --- | --- | --- | --- | --- | --- | --- |
| Br.C=C[C@]1(C)C[C@@H](OC(=O)CSc2nc(-c3cc[n+](Cc4ccc([N+](=O)[O-])cc4)cc3)cs2)[C@]2(C)[C@H](C)CC[C@]3(CCC(=O)[C@H]32)[C@@H](C)[C@@H]1O | 1 | 0.5 | 0.125 | 2 | 2 | 2 | 1 | 0.5 | 64 | 16 | 16 | 2 | 2 | 8 | 8 | 16 | 16 | 754 | 86.7 | > 100 | CC50 at 48 h [17]: 75.8 µM |
| COc1c(N2C[C@@H]3CCCN[C@@H]3C2)c(F)cc2c(=O)c(C(=O)O)cn(C3CC3)c12 [MOXIFLOXACIN] | 1 (≈ 2.49 µM) | 0.25 (≈ 0.623 µM) | 0.062 (≈ 0.154 µM) | 0.5 (≈ 1.25 µM) | 2 (≈ 4.98 µM) | 2 (≈ 4.98 µM) | 0.125 (≈ 0.311 µM) | 0.25 (≈ 0.623 µM) | 32 (≈ 79.7 µM) | 8 (≈ 19.9 µM) | 4 (≈ 9.96 µM) | 0.5 (≈ 1.25 µM) | 2 (≈ 4.98 µM) | 0.5 (≈ 1.25 µM) | 8 (≈ 19.9 µM) | 16 (≈ 39.9 µM) | 32 (≈ 79.7 µM) |  |  |  |  |
| C=C[C@]1(C)C[C@@H](OC(=O)CS[C@@H]2C[C@H]3CC[C@@H](C2)N3C)[C@]2(C)[C@H](C)CC[C@]3(CCC(=O)[C@H]32)[C@@H](C)[C@@H]1O [RETAPAMULIN] | 32 (≈ 61.8 µM) | 16 (≈ 30.9 µM) | 4 (≈ 7.73 µM) | 64 (≈ 124 µM) | 4 (≈ 7.73 µM) | 128 (≈ 247 µM) | 32 (≈ 61.8 µM) | 32 (≈ 61.8 µM) | 128 (≈ 247 µM) | 64 (≈ 124 µM) | 128 (≈ 247 µM) | 32 (≈ 61.8 µM) | 32 (≈ 61.8 µM) | > 128 | 128 (≈ 247 µM) | 64 (≈ 124 µM) | 64 (≈ 124 µM) | 289 (≈ 150 µg/mL) | 83.8 | > 100 | CC50 at 48 h [17]: 76.5 µM |
| C=C[C@]1(C)C[C@@H](OC(=O)CSc2nc(-c3cc[n+](Cc4ccc(Br)cc4)cc3)cs2)[C@]2(C)[C@H](C)CC[C@]3(CCC(=O)[C@H]32)[C@@H](C)[C@@H]1O.[Br-] | 2 | 1 | 0.5 | 8 | 2 | 4 | 2 | 0.5 |  |  |  |  |  |  |  |  |  | 760 |  |  |  |
| C=C[C@]1(C)C[C@@H](OC(=O)CSc2nc(-c3cc[n+](CCCC)cc3)cs2)[C@]2(C)[C@H](C)CC[C@]3(CCC(=O)[C@H]32)[C@@H](C)[C@@H]1O.[Br-] | 2 | 4 | 4 | 4 | 16 | 2 | 16 | 4 |  |  |  |  |  |  |  |  |  | 672 |  |  |  |
| C=C[C@]1(C)C[C@@H](OC(=O)CSc2nc(-c3cc[n+](Cc4cc(C)cc(C)c4)cc3)cs2)[C@]2(C)[C@H](C)CC[C@]3(CCC(=O)[C@H]32)[C@@H](C)[C@@H]1O.[Br-] | 64 | 128 | 128 | 128 | 8 | 16 | 32 | 32 |  |  |  |  |  |  |  |  |  | 543 |  |  |  |
| C=C[C@]1(C)C[C@@H](OC(=O)CSc2nc(-c3cc[n+](Cc4cc(F)cc(F)c4)cc3)cs2)[C@]2(C)[C@H](C)CC[C@]3(CCC(=O)[C@H]32)[C@@H](C)[C@@H]1O.[Br-] | 64 | 64 | 64 | 64 | 8 | 16 | 16 | 32 |  |  |  |  |  |  |  |  |  | 803 |  |  |  |
| C=C[C@]1(C)C[C@@H](OC(=O)CSc2nc(-c3cc[n+](Cc4ccc(Cl)cc4)cc3)cs2)[C@]2(C)[C@H](C)CC[C@]3(CCC(=O)[C@H]32)[C@@H](C)[C@@H]1O.[Br-] | 2 | 2 | 0.125 | 8 | 2 | 2 | 0.5 | 1 |  |  |  |  |  |  |  |  |  | 649 |  |  |  |
| C=C[C@]1(C)C[C@@H](OC(=O)CSc2nc(-c3cc[n+](Cc4ccc(OC)cc4)cc3)cs2)[C@]2(C)[C@H](C)CC[C@]3(CCC(=O)[C@H]32)[C@@H](C)[C@@H]1O.[Br-] | 1 | 1 | 0.5 | 4 | 2 | 0.5 | 0.5 | 1 | 16 | 32 | 16 | 4 | 8 | 2 | 64 | 64 | 8 | 653 | 95.4 | 87.4 | CC50 at 48 h [17]: > 100 µM |
| C=C[C@]1(C)C[C@@H](OC(=O)CSc2nc(-c3cc[n+](CCCCCCCCCCCCCCCC)cc3)cs2)[C@]2(C)[C@H](C)CC[C@]3(CCC(=O)[C@H]32)[C@@H](C)[C@@H]1O.[Br-] | > 128 | 64 | 64 | > 128 | > 128 | > 128 | > 128 | > 128 |  |  |  |  |  |  |  |  |  | 187 |  |  |  |
